Measured values published in patent publication US6797700B2, “Antithrombotic azacycloalkylalkanoyl peptides and pseudopeptides” (Aventis Pharmaceuticals, Inc., priority 1993, dated 2004).
Where two headings read alike, the source gives them in different places.

Tests used:
[1] = test system: ADP-induced platelet aggregation in canine platelet rich plasma; assay: Inhibition of ADP-Induced ex-vivo Platelet Aggregation after oral administration; assay type: in vivo, mongrel dogs; conditions: Canis lupus familiaris, Platelet, dog
Description: Inhibition of ADP-Induced ex-vivo Platelet Aggregation
Control blood samples are obtained 5-10 minutes prior to administration of the test compound in mongrel dogs weighing from 10 to 20 kg. The compound is administered intragasticly, via aqueous gavage, or orally, via gelatin capsule. Blood samples (5 ml) are then obtained at 30 minute intervals for 3 hours, and at 6, 12, and 24 hours after dosing. Each blood sample is obtained by venipuncture of the cephalic vein and is collected directly into a plastic syringe containing one part 3.8% trisodium citrate to nine parts blood.
Ex vivo Canine Platelet Aggregation
The blood samples are centrifuged at 1000 rpm for 10 minutes to obtain platelet rich plasma (PRP). After removal of the PRP, the sample is centrifuged for an additional 10 minutes at 2000 rpm to obtain platelet poor plasma (PPP). Platelet count in the PRP is determined by using a Coulter Counter (Coulter Electronics, Hialeah, Fla.). If the concentration of platelets in the PRP is greater than 300,000 platelets/μl, then the PRP is diluted with PPP to adjust the platelet count to 300,000 platelets/μl. Aliquots of PRP (250 μl) are then placed in siliconized glass cuvettes (7.25×55 mm, Bio/Data Corp, Horsham, Pa.). Epinephrine (final concentration of 1 μM) is then added to the PRP, which is incubated for one minute at 37° C. A stimulator of platelet aggregation, ADP at a final concentration of 10 μM, is then added to the PRP. Platelet aggregation is monitored spectrophotometrically utilizing a light transmission aggregometer (Bio/Data Platelet Aggregation Profiler, Model PAP-4, Bio/Data Corp, Horsham, Pa.). For compound to be tested, the rate of change (slope) of light transmittance and the maximum light transmittance (maximum aggregation) is recorded in duplicate. Platelet aggregation data are reported as the percent decrease (mean±SEM) in slope or maximum aggregation as compared to data obtained from control PRP, which is prepared from blood samples obtained prior to administration of the test compound.

[2] = test system: fixed activated platelets; assay: Platelet Aggregation Assay (fixed-activated platelets, fibrinogen-mediated aggregation); assay type: cell-based; conditions: aggregation initiated by human fibrinogen 250 μg/ml, read-out: Inhibition of Fixed Platelet Aggregation (IC50 μM)
Description: Preparation of Fixed-Activated Platelets
Platelets are isolated from human platelet concentrates using the gel-filtration technique as described by Marguerie, G. A., et al., J. Biol. Chem. 254, 5357-5363 (1979) and Ruggeri, Z. M., et al., J. Clin. Invest. 72, 1-12 (1983). The platelets are suspended at a concentration of 2×10^8 cells/ml in a modified calcium-free Tyrode's buffer containing 127 mM sodium chloride, 2 mM magnesium chloride, 0.42 mM Na2HPO4, 11.9 mM NaHCO3, 2.9 mM KCl, 5.5 mM glucose, 10 mM HEPES, at a pH of 7.35 and 0.35% human serum albumin (HSA). These washed platelets are activated by addition of human a-thrombin at a final concentration of 2 units/ml, followed by thrombin inhibitor I-2581 at a final concentration of 40 μM. To the activated platelets is added paraformaldehyde to a final concentration of 0.50% and this incubated at room temperature for 30 minutes. The fixed activated platelets are then collected by centrifugation at 650×g for 15 minutes. The platelet pellets are washed four times with the above Tyrode's-0.35% HSA buffer and resuspended to 2×10^8 cells/ml in the same buffer.
Platelet Aggregation Assay
The fixed activated platelets are incubated with a selected dose of the compound to be tested for platelet aggregation inhibition for one minute and aggregation initiated by addition of human fibrinogen to a final concentration of 250 μg/ml. A platelet aggregation profiler Model PAP-4 is used to record the platelet aggregation. The extent of inhibition of aggregation is expressed as the percentage of the rate of aggregation observed in the absence of inhibitor.

[3] = 1 h after dosing, read-out: % Inhibition of ex-vivo Platelet Aggregation After Oral Administration, 1 h
[4] = 3 h after dosing, read-out: % Inhibition of ex-vivo Platelet Aggregation After Oral Administration, 3 h
[5] = 6 h after dosing, read-out: % Inhibition of ex-vivo Platelet Aggregation After Oral Administration, 6 h
[6] = 12 h after dosing, read-out: % Inhibition of ex-vivo Platelet Aggregation After Oral Administration, 12 h
[7] = 24 h after dosing, read-out: % Inhibition of ex-vivo Platelet Aggregation After Oral Administration, 24 h

| Structure (SMILES) | IC50 ([2]; Homo sapiens, Platelet) [µM] | IC50 ([2]; fixed activated human platelets) [µM] | inhibition at 10 mg/kg [1, 3] [%] | inhibition at 10 mg/kg [1, 4] [%] | inhibition at 10 mg/kg [1, 5] [%] | inhibition at 5 mg/kg [1, 3] [%] | inhibition at 5 mg/kg [1, 4] [%] | inhibition at 5 mg/kg [1, 5] [%] | inhibition at 5 mg/kg [1, 6] [%] | inhibition at 5 mg/kg [1, 7] [%] |
| --- | --- | --- | --- | --- | --- | --- | --- | --- | --- | --- |
| CCN(CC(=O)NC(CC(=O)O)C(=O)NC(C(=O)O)C(C)C)C(=O)CCCC1CCNCC1 (centres unmarked) [Example 4] | 0.72 | – | 90 | 50 | < 20 | – | – | – | – | – |
| CCN(CC(=O)NC(CC(=O)O)C(=O)NC(CC(C)(C)C)C(=O)O)C(=O)CCCC1CCNCC1 (centres unmarked) [Example 5] | 0.082 | – | 100 | 90 | 35 | – | – | – | – | – |
| CCCCC(NC(=O)C(CC(=O)O)NC(=O)CN(CC)C(=O)CCCC1CCNCC1)C(=O)O (centres unmarked) [Example 6] | 0.13 | – | 80 | 20 | – | – | – | – | – | – |
| CCN(CC(=O)NC(CC(=O)O)C(=O)NC(Cc1cccc2ccccc12)C(=O)O)C(=O)CCCC1CCNCC1 [Example 7, N-[N-[N-(4-(piperidin-4-yl)butanoyl)-N-ethylglycyl]aspartyl]-L-b-naphth-1-yl alanine] | 0.11 | – | – | – | – | 30 | < 20 | – | – | – |
| CCN(CC(=O)NC(CC(=O)O)C(=O)NC(CC1CCCCC1)C(N)=O)C(=O)CCCC1CCNCC1 [Example 12, N-[N-[N-(4-(piperidin-4-yl)butanoyl)-N-ethylglycyl]aspartyl]-L-b-cyclohexyl alanine amide] | 0.097 | – | – | – | – | 100 | 100 | 100 | 98 | 50 |
| CCN(CC(=O)NC(CC(=O)O)C(=O)NC(CC1CCCC2CCCCC21)C(=O)O)C(=O)CCCC1CCNCC1 [Example 14, N-[N-[N-(4-(piperidin-4-yl)butanoyl)-N-ethylglycyl]aspartyl]-L-b-decahydronaphth-1-yl alanine] | – | 0.019 | – | – | – | 100 | 100 | 100 | 100 | 95 |

Now from value to molecule, other results behind:

| IC50 ([2]; Homo sapiens, Platelet) [µM] | IC50 ([2]; fixed activated human platelets) [µM] | Structure (SMILES) | inhibition at 10 mg/kg [1, 3] [%] | inhibition at 10 mg/kg [1, 4] [%] | inhibition at 10 mg/kg [1, 5] [%] | inhibition at 5 mg/kg [1, 3] [%] | inhibition at 5 mg/kg [1, 4] [%] | inhibition at 5 mg/kg [1, 5] [%] | inhibition at 5 mg/kg [1, 6] [%] | inhibition at 5 mg/kg [1, 7] [%] |
| --- | --- | --- | --- | --- | --- | --- | --- | --- | --- | --- |
| 0.027 | – | CCN(CC(=O)N[C@@H](CC(=O)O)C(=O)N[C@H](C(=O)O)C(C)C)C(=O)CCCC1CCNCC1 [Example 2, N-[N-[N-(4-(piperidin-4-yl)butanoyl)-N-ethylglycyl]aspartyl]valine] | 90 | 60 | < 20 | – | – | – | – | – |
| 0.064 | – | CCN(CC(=O)NC(CC(=O)O)C(=O)NC(Cc1ccccc1)C(=O)O)C(=O)CCCC1CCNCC1 (centres unmarked) [Example 3, N-[N-[N-(4-piperidin-4-yl)-N-ethylglycyl]aspartyl]phenylalanine] | 40 | < 20 | – | – | – | – | – | – |
| 0.064 | – | CCOC(=O)C(CC1CCCCC1)NC(=O)C(CC(=O)O)NC(=O)CN(CC)C(=O)CCCC1CCNCC1 [Example 11, N-[N-[N-(4-(piperidin-4-yl)butanoyl)-N-ethylglycyl]aspartyl]-L-b-cyclohexyl alanine, ethyl ester] | – | – | – | 100 | 100 | 60 | 37 | – |
| 0.072 | – | CCN(CC(=O)N[C@@H](CC(=O)O)C(=O)NCCC1CCCCC1)C(=O)CCCC1CCNCC1 [Example 15, 2-cyclohexyl-N-[N-[N-(4-(piperidin-4-yl)butanoyl)-N-ethylglycyl]aspartyl]-ethylamine] | – | – | – | 35 | 18 | – | – | – |
